Measurements reported in PMC9890130 (Clinical cancer research : an official journal of the …, 2023).
Each block holds one compound with its values, some of them ahead of it. Bridge positions count the residues as written; N and C are the ends. Square brackets hold non-standard residues; d marks the D form. Peptide text beside a SMILES is read from it. * marks the point of attachment. DOTA = O=C(O)CN1CCN(CC(=O)O)CCN(CC(=O)*)CCN(CC(=O)O)CC1; Trp(1-CH2COOH) = N[C@@H](Cc1cn(CC(=O)O)c2ccccc12)C(=O)O; Hyp = O=C(O)[C@@H]1C[C@@H](O)CN1; NMeNle = CCCC[C@H](NC)C(=O)O; NMeA = CN[C@@H](C)C(=O)O

What was measured:
[1] = Biodistribution of [^68Ga]Ga-DK385; format: in vivo, mice; details: mouse, iv, 50 uCi, total radioactivity
[2] = tested on: MDAMB231, BFTC909, SUM149, and SCaBER cells; assay: In vitro binding assay, blocking with non-radioactive DK223; format: cell-based, human; details: 1 μM non-radioactive DK223; P<0.0001
Human PD-L1 Fc-tagged = Human PD-L1 Fc-tagged (Homo sapiens, UniProt Q9NZQ7); assay: Surface plasmon resonance; format: binding; details: read-out: KD (affinity for PD-L1); SPR, Biacore T200, CM5 chip, 25°C, 1:1 kinetics model; n=3
BFTC909 cells = assay: [^68Ga]Ga-DK223 uptake in BFTC909 cells with and without aPD-L1 mAbs; format: cell-based, human; details: 60 nM mAb
[3] = cited from earlier work
BFTC909 xenografts [4] = assay: [^68Ga]Ga-DK223 PET-CT of BFTC909 xenografts after aPD-L1 treatment; format: in vivo, NSG mice; details: 24 h after 10 mg/kg mAb i.v.; PET 60 min after tracer
BFTC909 xenografts [5] = format: in vivo, NSG mice; details: 10 mg/kg

tissue to tissue ratio at 1 h ([1]; tumor and blood): 2.32 ± 0.38
tissue to tissue ratio at 1 h ([1]; tumor and muscle): 19.9 ± 2.15
tissue uptake at 1 h ([1]; tumor): 8.5 ± 1.67 %ID/g
Compound: CCCC[C@H]1C(=O)N(C)[C@@H](CCCC)C(=O)N[C@@H](CCCCNC(=O)CCC(C(=O)O)N2CCN(CC(=O)O)CCN(CC(=O)O)CCN(CC(=O)O)CC2)C(=O)N[C@H](C(=O)NCC(N)=O)CSCC(=O)N[C@@H](Cc2ccc(O)cc2)C(=O)N(C)[C@@H](C)C(=O)N[C@@H](CC(N)=O)C(=O)N2CCC[C@H]2C(=O)N[C@@H](Cc2c[nH]cn2)C(=O)N[C@@H](CCC(=O)O)C(=O)N2C[C@H](O)C[C@H]2C(=O)N[C@@H](Cc2c[nH]c3ccccc23)C(=O)N[C@@H](CO)C(=O)N[C@@H](Cc2cn(CC(=O)O)c3ccccc23)C(=O)N1C (stereo partly shown) [[^68Ga]Ga-DK385, metal not drawn]

Kd (Human PD-L1 Fc-tagged): 1.01 ± 0.83 nM
Compound: CCCC[C@H]1C(=O)N(C)[C@@H](CCCC)C(=O)N[C@@H](CCCCNC(=O)CN2CCN(CC(=O)O)CCN(CC(=O)O)CCN(CC(=O)O)CC2)C(=O)N[C@H](C(=O)NCC(N)=O)CSCC(=O)N[C@@H](Cc2ccc(O)cc2)C(=O)N(C)[C@@H](C)C(=O)N[C@@H](CC(N)=O)C(=O)N2CCC[C@H]2C(=O)N[C@@H](Cc2c[nH]cn2)C(=O)N[C@@H](CCC(=O)O)C(=O)N2C[C@H](O)C[C@H]2C(=O)N[C@@H](Cc2c[nH]c3ccccc23)C(=O)N[C@@H](CO)C(=O)N[C@@H](Cc2cn(CC(=O)O)c3ccccc23)C(=O)N1C [DK223] ({CH2CO}-Y[NMeA]NPHE[Hyp]WS[Trp(1-CH2COOH)][NMeNle][NMeNle]K(DOTA)CG-NH2; thioether N-14)
[^68Ga]Ga-DK223 uptake in cells incubated with non-radioactive DK223 [2]: significantly reduced

Compound: durvalumab
[^68Ga]Ga-DK223 uptake in BFTC909 cells in presence of mAb (BFTC909 cells): less than 1%
half-life [3]: 18 days
[^68Ga]Ga-DK223 uptake in tumors (PET) after mAb treatment (BFTC909 xenografts [4]): significantly lower uptake
accessible PD-L1 levels (BFTC909 xenografts [5]; 120 h of treatment, tumor %ID/g as fraction of saline group): less than 10%
[^68Ga]Ga-DK223 tumor uptake versus saline controls (BFTC909 xenografts [5]; 120 h treatment): continued reduction in accessible target levels
